Our source for the class values is patent publication US20050197350A1, “Novel quinoline, tetrahydroquinazoline, and pyrimidine derivatives and methods of treatment related to the use thereof” (TAISHO PHARMACEUTICAL CO., LTD., priority 2003, published 2005).

One experiment deals with MCH receptors. Nature of the experiment: MCH receptor activity class (method not given). To be noted: MCH receptor activity class 1-3 (percent of control at 10^-7 M or IC50).
Consider `Cc1c(Cl)cccc1NC(=S)N[C@H]1CC[C@@H](Nc2nccc(N(C)C)n2)CC1` [compound 2351], for which the class is 3 (Class 3 The value of percent of control at 10^−7 M was more than 60% or the value of IC50 was more than 200 nM.).

The experiment is the same for the next values; noted with them: MCH receptor; class by percent of control at 10^-7 M or IC50.
As to `COc1ccccc1CNC(=S)N[C@H]1CC[C@@H](Nc2nc3c(c(N(C)C)n2)CCCC3)CC1` [compound 2062], the class is on record as 3 (Class 3 The value of percent of control at 10^−7 M was more than 60% or the value of IC50 was more than 200 nM.).
Regarding `CN(C)c1nc(N[C@H]2CC[C@@H](NC(=S)Nc3ccc([N+](=O)[O-])cc3)CC2)nc2c1CCCC2` [compound 1953], the class is 3 (Class 3 The value of percent of control at 10^−7 M was more than 60% or the value of IC50 was more than 200 nM.).

The same experiment, now with this note: activity class 1-3: percent of control at 10^-7 M or IC50.
With `CN(C)c1cc(N[C@H]2CC[C@@H](NC(=O)Oc3ccccc3)CC2)nc2ccccc12` [compound 1552], the class is 3 (Class 3 The value of percent of control at 10^−7 M was more than 60% or the value of IC50 was more than 200 nM.).
As for `CN(C)c1cc(N[C@H]2CC[C@@H](CNC(=O)OCc3ccccc3)CC2)nc2ccccc12` [compound 1571], the class was 3 (Class 3 The value of percent of control at 10^−7 M was more than 60% or the value of IC50 was more than 200 nM.).
For the compound `CC(NC(=O)N[C@H]1CC[C@@H](Nc2nc3c(c(N(C)C)n2)CCCC3)CC1)c1ccccc1` (relative stereo) [compound 1706], the class is listed as 3 (Class 3 The value of percent of control at 10^−7 M was more than 60% or the value of IC50 was more than 200 nM.).

The experiment is the same for the next values; noted with them: activity class per percent of control at 10^-7 M or IC50.
For the compound `CCCN(CCC)C(=O)[C@H](CCC(=O)N[C@H]1CC[C@@H](Nc2nc3c(c(N(C)C)n2)CCCC3)CC1)NC(=O)c1ccccc1` (relative stereo) [compound 1006], the class is on record as 1 (Class 1: The value of percent of control at 10^−7 M was less than 40% or the value of IC50 was less than 50 nM.).
For the compound `CC(C(=O)N[C@H]1CC[C@@H](Nc2nc3c(c(N(C)C)n2)CCCC3)CC1)c1ccc(-c2ccccc2)c(F)c1` (relative stereo) [compound 984], the class is given as 2 (Class 2: The value of percent of control at 10^−7 M was from 40% to 60% or the value of IC′50 was from 50 nM to 200 nM.).

Still in this experiment, the particulars now being: class 1-3 by percent of control at 10^-7 M or IC50.
Consider `Cc1cc(C(=O)N[C@H]2CC[C@@H](Nc3nc4c(c(N(C)C)n3)CCCC4)CC2)nn1C(C)(C)C` [compound 526], for which the class is given as 3 (Class 3 The value of percent of control at 10^−7 M was more than 60% or the value of IC50 was more than 200 nM.).
For `CN(C)c1nc(N[C@H]2CC[C@@H](NC(=O)c3cc(C(F)(F)F)ccc3F)CC2)nc2c1CCCC2` [compound 501], the class is 3 (Class 3 The value of percent of control at 10^−7 M was more than 60% or the value of IC50 was more than 200 nM.).
Consider `CN(C)c1ccnc(N[C@H]2CC[C@@H](CNC(=O)/C=C/c3ccccc3Cl)CC2)n1` [compound 452], for which the class is listed as 2 (Class 2: The value of percent of control at 10^−7 M was from 40% to 60% or the value of IC′50 was from 50 nM to 200 nM.).
Take `Cc1cc(C(=O)NC[C@H]2CC[C@@H](Nc3nccc(N(C)C)n3)CC2)nn1C(C)(C)C` [compound 435, 1-tert-butyl-N-[(cis-4-{[4-(dimethylamino)pyriniidin-2-yl]amino}cyclohexyl)methyl]-5-methyl-1H-pyrazole-3-carboxamide]: the class is listed as 3 (Class 3 The value of percent of control at 10^−7 M was more than 60% or the value of IC50 was more than 200 nM.).

The experiment is the same for the next values; noted with them: class by percent of control at 10^-7 M or IC50.
`Cc1cc([N+](=O)[O-])ccc1NC(=S)N[C@H]1CC[C@@H](Nc2nc3c(c(N(C)C)n2)CCCC3)CC1` [compound 1771]: the class is 3 (Class 3 The value of percent of control at 10^−7 M was more than 60% or the value of IC50 was more than 200 nM.).
Take `COc1ccc(CN[C@H]2CC[C@@H](Nc3nccc(N(C)C)n3)CC2)c(OC)c1` [compound 1214]: the class is reported as 3 (Class 3 The value of percent of control at 10^−7 M was more than 60% or the value of IC50 was more than 200 nM.).
Regarding `CN(C)c1ccnc(N[C@H]2CC[C@@H](CNC(=O)c3cccc([N+](=O)[O-])c3)CC2)n1` [compound 389], the class was 3 (Class 3 The value of percent of control at 10^−7 M was more than 60% or the value of IC50 was more than 200 nM.).
The same measure, in the same setting: next, `CN(C)c1ccnc(N[C@H]2CC[C@@H](NC(=O)c3cc(C(C)(C)C)c(O)c(C(C)(C)C)c3)CC2)n1` [compound 924]: 1 (Class 1: The value of percent of control at 10^−7 M was less than 40% or the value of IC50 was less than 50 nM.); `Cc1ccc(NC(=O)N[C@H]2CC[C@@H](Nc3nc4c(c(N(C)C)n3)CCCC4)CC2)cc1` [compound 1796]: 2 (Class 2: The value of percent of control at 10^−7 M was from 40% to 60% or the value of IC′50 was from 50 nM to 200 nM.); `CCOc1cc(CNC[C@H]2CC[C@@H](Nc3nc4c(c(N(C)C)n3)CCCC4)CC2)ccc1O` [compound 1401]: 2 (Class 2: The value of percent of control at 10^−7 M was from 40% to 60% or the value of IC′50 was from 50 nM to 200 nM.).
On the same count and under the same terms, next, `CN(C)c1ccnc(N[C@H]2CC[C@@H](CNC(=O)c3cccc(Br)c3)CC2)n1` [compound 366]: 3 (Class 3 The value of percent of control at 10^−7 M was more than 60% or the value of IC50 was more than 200 nM.); `CN(C)c1nc(N[C@H]2CC[C@@H](NC(=O)Nc3cc(C(F)(F)F)ccc3F)CC2)nc2c1CCCC2` [compound 1859]: 3 (Class 3 The value of percent of control at 10^−7 M was more than 60% or the value of IC50 was more than 200 nM.); `CC(CN[C@H]1CC[C@@H](Nc2nc3c(c(N(C)C)n2)CCCC3)CC1)c1ccccc1` (relative stereo) [compound 1352]: 3 (Class 3 The value of percent of control at 10^−7 M was more than 60% or the value of IC50 was more than 200 nM.).
With `CN(C)c1cc(N[C@H]2CC[C@@H](CNC(=O)C3CC(=O)c4ccccc43)CC2)nc2ccccc12` (relative stereo) [compound 798], the class is recorded as 3 (Class 3 The value of percent of control at 10^−7 M was more than 60% or the value of IC50 was more than 200 nM.).
As for `CN(C)c1ccnc(N[C@H]2CC[C@@H](CNCc3ccsc3)CC2)n1` [compound 1304], the class was 3 (Class 3 The value of percent of control at 10^−7 M was more than 60% or the value of IC50 was more than 200 nM.).
Regarding `CN(C)c1nc(N[C@H]2CC[C@@H](NC(=O)NCc3cccc(F)c3)CC2)nc2c1CCCC2` [compound 1873], the class was 3 (Class 3 The value of percent of control at 10^−7 M was more than 60% or the value of IC50 was more than 200 nM.).

The same experiment, now with this note: class by percent of control at 10^−7 M or IC50.
As to `Cc1cc(N(C)C)nc(NC[C@H]2CC[C@@H](NC(=O)c3ccc(F)c(F)c3)CC2)n1` [compound 2734, N-[cis-4-({[4-(dimethylamino)-6-methylpyrimidin-2-yl]amino}methyl)cyclohexyl]-3,4-difluorobenzamide], the class is on record as 3 (Class 3 The value of percent of control at 10^−7 M was more than 60% or the value of IC50 was more than 200 nM.).
Consider `Cc1cc(N(C)C)nc(N[C@H]2CC[C@@H](NC(=O)c3ccc(F)cc3)CC2)n1` [compound 2990, N-(cis-4-{[4-(dimethylamino)-6-methylpyrimidin-2-yl]amino}cyclohexyl)-4-fluorobenzamide], for which the class was 1 (Class 1: The value of percent of control at 10^−7 M was less than 40% or the value of IC50 was less than 50 nM.).
Regarding `Cc1cnc(N[C@H]2CC[C@@H](CNC(=O)c3ccc(F)c(Cl)c3)CC2)nc1N(C)C` [compound 2704], the class was 1 (Class 1: The value of percent of control at 10^−7 M was less than 40% or the value of IC50 was less than 50 nM.).
